Test results taken from the supplement of paper PMC10307832.

Experiments:
Assay in all cases: relative viability (nuclei count vs DMSO), 5 days (fraction); higher = more cells survive
IA-LM = system: IA-LM
How it was run: (§1)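 A single step with final 0.05% Triton X-100, 1% formaldehyde and 1 ug/ml Hoechst fixed the cells and stained nuclei 5 days after treatment. Lung cancer cell lines in 1536-well plates had been treated by pin tool the day after seeding with one drug alone or a fixed anchor-drug dose plus five library-drug doses (not always all listed) in √10 steps, and nuclei were counted on 4× images. Relative viability is the ratio of nuclei in treated wells to nuclei in vehicle wells, taken as the median of duplicate plates.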

UMC-11 = system: UMC-11
How it was run: as §1

EBC-1 = system: EBC-1
How it was run: as §1

EKVX = system: EKVX
How it was run: as §1

LCLC-103H = system: LCLC-103H
How it was run: as §1

NCI-H1299 = system: NCI-H1299
How it was run: as §1

A549 = system: A549
How it was run: as §1

HCC-44 = system: HCC-44
How it was run: as §1

NCI-H1755 = system: NCI-H1755
How it was run: as §1

NCI-H1703 = system: NCI-H1703
How it was run: as §1

Calu-6 = system: Calu-6
How it was run: as §1

HCC-15 = system: HCC-15
How it was run: as §1

NCI-H1395 = system: NCI-H1395
How it was run: as §1

Nc1ccn([C@@H]2O[C@H](CO)[C@@H](O)[C@@H]2O)c(=O)n1 [Cytarabine] + C[C@]1(O)C[C@@H](c2nc(-c3ccc4ccc(-c5ccccc5)nc4c3)c3c(N)nccn32)C1 [Linsitinib] (partner 1 µM)
relative viability (IA-LM; first compound 0.005 µM): 0.326 | relative viability (IA-LM; first compound 0.01581 µM): 0.763 | relative viability (IA-LM; first compound 0.05 µM): 0.357 | relative viability (IA-LM; first compound 0.1581 µM): 0.243 | relative viability (IA-LM; first compound 0.5 µM): 0.201 | relative viability (UMC-11; first compound 0.005 µM): 0.637 | relative viability (UMC-11; first compound 0.01581 µM): 0.637 | relative viability (UMC-11; first compound 0.05 µM): 0.424 | relative viability (UMC-11; first compound 0.1581 µM): 0.246 | relative viability (UMC-11; first compound 0.5 µM): 0.226 | relative viability (EBC-1; first compound 0.005 µM): 0.742 | relative viability (EBC-1; first compound 0.01581 µM): 0.815 | relative viability (EBC-1; first compound 0.05 µM): 0.614 | relative viability (EBC-1; first compound 0.1581 µM): 0.461 | relative viability (EBC-1; first compound 0.5 µM): 0.296 | relative viability (EKVX; first compound 0.005 µM): 0.731 | relative viability (EKVX; first compound 0.01581 µM): 0.853 | relative viability (EKVX; first compound 0.05 µM): 0.945 | relative viability (EKVX; first compound 0.1581 µM): 0.585 | relative viability (EKVX; first compound 0.5 µM): 0.242 | relative viability (LCLC-103H; first compound 0.005 µM): 0.976 | relative viability (LCLC-103H; first compound 0.01581 µM): 1.22 | relative viability (LCLC-103H; first compound 0.05 µM): 1.12 | relative viability (LCLC-103H; first compound 0.1581 µM): 1.09 | relative viability (LCLC-103H; first compound 0.5 µM): 1.18 | relative viability (NCI-H1299; first compound 0.005 µM): 0.928 | relative viability (NCI-H1299; first compound 0.01581 µM): 1.07 | relative viability (NCI-H1299; first compound 0.05 µM): 1 | relative viability (NCI-H1299; first compound 0.1581 µM): 1.05 | relative viability (NCI-H1299; first compound 0.5 µM): 0.886 | relative viability (A549; first compound 0.005 µM): 0.579 | relative viability (A549; first compound 0.01581 µM): 0.499 | relative viability (A549; first compound 0.05 µM): 0.407 | relative viability (A549; first compound 0.1581 µM): 0.0819 | relative viability (A549; first compound 0.5 µM): 0.0375 | relative viability (HCC-44; first compound 0.005 µM): 0.675 | relative viability (HCC-44; first compound 0.01581 µM): 0.664 | relative viability (HCC-44; first compound 0.05 µM): 0.384 | relative viability (HCC-44; first compound 0.1581 µM): 0.48 | relative viability (HCC-44; first compound 0.5 µM): 0.397 | relative viability (NCI-H1755; first compound 0.005 µM): 0.936 | relative viability (NCI-H1755; first compound 0.01581 µM): 0.873 | relative viability (NCI-H1755; first compound 0.05 µM): 0.858 | relative viability (NCI-H1755; first compound 0.1581 µM): 0.31 | relative viability (NCI-H1755; first compound 0.5 µM): 0.271 | relative viability (NCI-H1703; first compound 0.005 µM): 0.339 | relative viability (NCI-H1703; first compound 0.01581 µM): 0.346 | relative viability (NCI-H1703; first compound 0.05 µM): 0.166 | relative viability (NCI-H1703; first compound 0.1581 µM): 0.107 | relative viability (NCI-H1703; first compound 0.5 µM): 0.0904 | relative viability (Calu-6; first compound 0.005 µM): 0.928 | relative viability (Calu-6; first compound 0.01581 µM): 0.871 | relative viability (Calu-6; first compound 0.05 µM): 0.734 | relative viability (Calu-6; first compound 0.1581 µM): 0.444 | relative viability (Calu-6; first compound 0.5 µM): 0.283 | relative viability (HCC-15; first compound 0.005 µM): 0.902 | relative viability (HCC-15; first compound 0.01581 µM): 0.912 | relative viability (HCC-15; first compound 0.05 µM): 0.903 | relative viability (HCC-15; first compound 0.1581 µM): 0.72 | relative viability (HCC-15; first compound 0.5 µM): 0.585 | relative viability (NCI-H1395; first compound 0.005 µM): 0.89 | relative viability (NCI-H1395; first compound 0.01581 µM): 0.709 | relative viability (NCI-H1395; first compound 0.05 µM): 0.784 | relative viability (NCI-H1395; first compound 0.1581 µM): 0.466 | relative viability (NCI-H1395; first compound 0.5 µM): 0.38

Nc1ccn([C@@H]2O[C@H](CO)[C@@H](O)[C@@H]2O)c(=O)n1 [Cytarabine] + Cc1nc(NC(=O)N2CCC[C@H]2C(N)=O)sc1-c1ccnc(C(C)(C)C(F)(F)F)c1 [Alpelisib] (partner 2 µM)
relative viability (IA-LM; first compound 0.005 µM): 0.784 | relative viability (IA-LM; first compound 0.01581 µM): 0.591 | relative viability (IA-LM; first compound 0.05 µM): 0.701 | relative viability (IA-LM; first compound 0.1581 µM): 0.259 | relative viability (IA-LM; first compound 0.5 µM): 0.114 | relative viability (UMC-11; first compound 0.005 µM): 0.496 | relative viability (UMC-11; first compound 0.01581 µM): 0.463 | relative viability (UMC-11; first compound 0.05 µM): 0.375 | relative viability (UMC-11; first compound 0.1581 µM): 0.192 | relative viability (UMC-11; first compound 0.5 µM): 0.18 | relative viability (EBC-1; first compound 0.005 µM): 0.694 | relative viability (EBC-1; first compound 0.01581 µM): 0.64 | relative viability (EBC-1; first compound 0.05 µM): 0.676 | relative viability (EBC-1; first compound 0.1581 µM): 0.439 | relative viability (EBC-1; first compound 0.5 µM): 0.248 | relative viability (EKVX; first compound 0.005 µM): 0.867 | relative viability (EKVX; first compound 0.01581 µM): 0.893 | relative viability (EKVX; first compound 0.05 µM): 0.818 | relative viability (EKVX; first compound 0.1581 µM): 0.371 | relative viability (EKVX; first compound 0.5 µM): 0.211 | relative viability (LCLC-103H; first compound 0.005 µM): 0.988 | relative viability (LCLC-103H; first compound 0.01581 µM): 0.906 | relative viability (LCLC-103H; first compound 0.05 µM): 1.02 | relative viability (LCLC-103H; first compound 0.1581 µM): 0.967 | relative viability (LCLC-103H; first compound 0.5 µM): 0.809 | relative viability (NCI-H1299; first compound 0.005 µM): 1.13 | relative viability (NCI-H1299; first compound 0.01581 µM): 1.21 | relative viability (NCI-H1299; first compound 0.05 µM): 1.13 | relative viability (NCI-H1299; first compound 0.1581 µM): 1 | relative viability (NCI-H1299; first compound 0.5 µM): 1.06 | relative viability (A549; first compound 0.005 µM): 0.596 | relative viability (A549; first compound 0.01581 µM): 0.479 | relative viability (A549; first compound 0.05 µM): 0.399 | relative viability (A549; first compound 0.1581 µM): 0.0482 | relative viability (A549; first compound 0.5 µM): 0.0328 | relative viability (HCC-44; first compound 0.005 µM): 0.806 | relative viability (HCC-44; first compound 0.01581 µM): 0.726 | relative viability (HCC-44; first compound 0.05 µM): 0.586 | relative viability (HCC-44; first compound 0.1581 µM): 0.429 | relative viability (HCC-44; first compound 0.5 µM): 0.517 | relative viability (NCI-H1755; first compound 0.005 µM): 0.925 | relative viability (NCI-H1755; first compound 0.01581 µM): 0.878 | relative viability (NCI-H1755; first compound 0.05 µM): 0.75 | relative viability (NCI-H1755; first compound 0.1581 µM): 0.244 | relative viability (NCI-H1755; first compound 0.5 µM): 0.273 | relative viability (NCI-H1703; first compound 0.005 µM): 0.294 | relative viability (NCI-H1703; first compound 0.01581 µM): 0.22 | relative viability (NCI-H1703; first compound 0.05 µM): 0.194 | relative viability (NCI-H1703; first compound 0.1581 µM): 0.117 | relative viability (NCI-H1703; first compound 0.5 µM): 0.143 | relative viability (Calu-6; first compound 0.005 µM): 0.925 | relative viability (Calu-6; first compound 0.01581 µM): 0.826 | relative viability (Calu-6; first compound 0.05 µM): 0.79 | relative viability (Calu-6; first compound 0.1581 µM): 0.483 | relative viability (Calu-6; first compound 0.5 µM): 0.288 | relative viability (HCC-15; first compound 0.005 µM): 0.832 | relative viability (HCC-15; first compound 0.01581 µM): 0.878 | relative viability (HCC-15; first compound 0.05 µM): 0.844 | relative viability (HCC-15; first compound 0.1581 µM): 0.745 | relative viability (HCC-15; first compound 0.5 µM): 0.546 | relative viability (NCI-H1395; first compound 0.005 µM): 1.04 | relative viability (NCI-H1395; first compound 0.01581 µM): 0.858 | relative viability (NCI-H1395; first compound 0.05 µM): 0.583 | relative viability (NCI-H1395; first compound 0.1581 µM): 0.423 | relative viability (NCI-H1395; first compound 0.5 µM): 0.441
